One data set concerns CCD-966SK cells. Nature of the data set: Cell viability assay (MTT assay), normal cell line CCD-966SK. The class given is cell-based.
Data set [1] has as its system HepG2 cells. As to the kind of experiment: cells. As to conditions: Homo sapiens, HepG2, 24 h, read-out: IC50 of HepG2 cells.
Data set [2] relates to HepG2 cells.
In the next data set the test system is human cancer cells. The following applies: human cancer cells rather than normal cells; cited from earlier work.

This is an account of results in patent US20140057880A1, “ANTCIN DERIVATIVES IN COMBINATION WITH ANTI-CANCER DRUGS IN THE TREATMENT AND/OR PREVENTION OF TUMORS” (Taiwan Antitumor Biotech Co., Ltd., priority 2012, published 2014).

The IC50 is the concentration that inhibits the measured activity by half.

Values after ≈ are worked out from the molar mass of the structure shown. Where two headings read alike, the source gives them in different places.

Turning to `CCN(CC)CCNC(=O)c1c(C)[nH]c(/C=C2\C(=O)Nc3ccc(F)cc32)c1C` [sunitinib], the “killing of normal cells (CCD-966SK cells)” value in the data set on CCD-966SK cells (sunitinib alone at about 25 μg/ml (FIG. 10)) is recorded as “also killed”. The concentration for half-maximal inhibition (IC50) with HepG2 cells [1] was ~25 µg/mL (≈ 62.7 µM).

As for `O=c1[nH]cc(F)c(=O)[nH]1` [5FU, 5-fluorouracil], the 50% inhibitory concentration (IC50) in the data set on HepG2 cells [1] is 200 µg/mL (≈ 1540 µM). Moreover, the “killing of HepG2 cells” value in the data set on HepG2 cells [2] (5FU alone, high concentration) is “cannot be completely killed”.

Consider `CC/C(=C(\c1ccccc1)c1ccc(OCCN(C)C)cc1)c1ccccc1` [tamoxifen], for which the “killing of HepG2 cells” value with HepG2 cells [2] (12.5 μg/ml tamoxifen alone) is “cannot be completely killed”.

For the compound `C=C(CC[C@@H](C)[C@H]1CC[C@H]2C3=C(C(=O)C[C@]12C)[C@@]1(C)CCC(=O)[C@@H](C)[C@@H]1CC3)[C@@H](C)C(=O)O` [Antcin A, 4α-methylergosta-8,24(28)-diene-3,11-dione-26-oic acid], the “selective inhibition of proliferation” value in the data set on human cancer cells is recorded as “selectively inhibit proliferation of human cancer cells rather than normal cells”.

`C=C(CC[C@@H](C)[C@H]1CC[C@H]2C3=C(C(=O)C[C@]12C)[C@@]1(C)CCC(=O)[C@@H](C)[C@@H]1CC3)C(C)C(=O)OC` (stereo partly shown) [Methyl antcinate A]: the “selective inhibition of proliferation” value in the data set on human cancer cells is on record as “selectively inhibit proliferation of human cancer cells rather than normal cells”.

Take `O=C1c2c(O)ccc(O)c2C(=O)c2c(NCCNCCO)ccc(NCCNCCO)c21` [mitoxantrone]: the “viability of normal cells (CCD-966SK cells)” value in the data set on CCD-966SK cells (mitoxantrone alone at about 2.5 μg/ml (FIG. 12)) was “reduced”. Also, in the data set on HepG2 cells [1], the IC50 was ~2.5 µg/mL (≈ 5.62 µM).

For the compound `C=C(CC[C@@H](C)[C@H]1CC[C@H]2C3=C(C(=O)C[C@]12C)[C@@]1(C)CCC(=O)[C@@H](C)C1C[C@@H]3O)C(C)C(=O)O` (stereo partly shown) [Antcin C, 4amethylergosta-8,24(28)-dien-3,11-trion-7P-26-oic acid], the “selective inhibition of proliferation” value in the data set with human cancer cells is “selectively inhibit proliferation of human cancer cells rather than normal cells”.
